# Measured values as given in patent publication US12616673B2 (priority 2020, dated 2026).
# Test system: LC3 in MOLM-13 cells
# Test: Autophagy activation: LC3 Western blot and confocal microscopy
# Settings: 48 hours in culture
# Procedure: C MOLM-13 cells were treated as in FIG. 1A for 24 or 48 hours. […] D The same cells analysed by Western blot in C were also assessed by confocal microscopy analysis to highlight the LC3 dots (in green); the DNA is highlighted in blue by the Hoechst dye.
# After being deposited on a slide via cytospin, the cells were fixed with 4% paraformaldehyde for 7 min, permeabilized with 0.1% TritonX100 in PBS/1% BSA for 5 min and stained with the primary anti-FLT3 (rabbit monoclonal, FLT3 (8F2), #3462, Cell Signaling Technologies, Danvers, MA, USA) or anti-calnexin (CNX, rabbit polyclonal AB22595, AbCam, Cambridge, UK) or anti-calreticulin (CRT, rabbit polyclonal AB2907, AbCam, Cambridge, UK) or anti-LC3 (LC3B Antibody #2775) antibodies, and then with an Alexa Fluor-488 secondary anti-rabbit IgG antibody Molecular Probes, ThermoFisher Scientific, Waltham, MA, USA); the DNA was detected with the TOPRO-3 (Molecular Probes, ThermoFisher Scientific, Waltham, MA, USA) or Hoechst dye (Molecular Probes, ThermoFisher Scientific, Waltham, MA, USA) and the slides were mounted with the Vectashield medium (Vector Laboratories, Burlingame, CA, USA). The images were acquired with a Leica confocal laser scanning microscope TCS SP2 at 40× magnification or with a Zeiss LSM900 at 63× magnification. The images were analysed using the Leica Confocal software (Leica, Milan, Italy) or the Zeiss Zen Blue software. […]
smiles,measurement,value
"CC1=C(/C=C/C(C)=C/C=C/C(C)=C/C(=O)O)C(C)(C)CCC1 [R, all-trans retinoic acid]","autophagy activation (LC3 activity, LC3-II/LC3-I)",slight increase in LC3 activity
